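Briefly, cells in 96-well plates were exposed to five compound concentrations for 48 h, and endpoints were estimated by linear interpolation. GI50: concentration for 50% inhibition of growth. TGI is the concentration that stops growth completely.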
Experiments:
Assay in all cases: growth of human tumour cells (NCI), 48 h
[1] = test system: UACC-62 melanoma
[2] = test system: T-47D breast
[3] = test system: SK-MEL-2 melanoma
[4] = test system: SF-268 CNS
[5] = test system: SN12C renal
[6] = test system: HOP-62 NSCLC
[7] = test system: RPMI-8226 leukemia
[8] = test system: PC-3 prostate
[9] = test system: HOP-92 NSCLC
[10] = test system: SF-539 CNS

SMILES | TGI [1] | TGI [2] | TGI [3] | TGI [4] | TGI [5] | TGI [6] | TGI [7] | TGI [8] | TGI [9] | TGI [10] | GI50 [1] | GI50 [10] | GI50 [3] | GI50 [4] | GI50 [5] | GI50 [6] | GI50 [7] | GI50 [9] | GI50 [2] | GI50 [8]
COc1ccc(Cc2ccccc2C(=O)O)c2ccccc12 | 29.9 µM | > 100 µM | 54.5 µM | 87.5 µM | > 100 µM | > 100 µM | > 100 µM | > 100 µM | 61.9 µM |  |  |  |  |  |  |  |  |  |  | 
COC(=O)/C(C#N)=C1\N=NNN1CCCc1ccccc1 | > 100 µM |  |  |  | > 100 µM |  | > 100 µM |  | > 100 µM | > 100 µM |  |  |  |  |  |  |  |  |  | 
COc1ccccc1NC(=O)C1=C(C)NC(C)=C(C(=O)Nc2ccccc2OC)C1c1ccc(C(C)C)cc1 | > 100 µM |  | > 100 µM | > 100 µM | > 100 µM | > 100 µM | > 100 µM |  | > 100 µM | > 100 µM |  |  |  |  |  |  |  |  |  | 
O=c1c2ccccc2nc(-c2ccc(Cl)cc2)n1O | > 100 µM | > 100 µM |  | > 100 µM | > 100 µM | 91.2 µM | > 100 µM | > 100 µM | 88.8 µM | 64.7 µM |  |  |  |  |  |  |  |  |  | 
CCN(CCCl)CCNc1c2ccccc2nc2ccc(OC)cc12 | 1.94 µM |  | 2.52 µM | 2.59 µM | 2.85 µM | 3.85 µM | 1.37 µM |  | 2.43 µM | 2.34 µM |  |  |  |  |  |  |  |  |  | 
CC(CN(CP(=O)([O-])[O-])CP(=O)([O-])[O-])N(CP(=O)([O-])[O-])CP(=O)([O-])[O-].N[C@@H]1CCCC[C@@H]1N.[Pt+2] (centres undefined) | > 100 µM |  | > 100 µM | > 100 µM | > 100 µM | > 100 µM | > 100 µM |  | > 100 µM | > 100 µM | > 100 µM | > 100 µM | > 100 µM | > 100 µM | > 100 µM | > 100 µM | > 100 µM | > 100 µM |  | 
C/C=C/C1(NS(=O)(=O)c2ccc(C)cc2)CCC(C(C)(C)C)CC1 (centres undefined) | 37.4 µM |  | 34.8 µM | 59.5 µM | 34.7 µM | 49.7 µM | 47.1 µM |  | 41.6 µM | 44.1 µM |  |  |  |  |  |  |  |  |  | 
CCCNc1nc(-c2ccc(OC)cc2)nc2ccccc12 | 35.5 µM | > 100 µM | > 100 µM | 38.8 µM | 46.1 µM | 31.2 µM | 22.6 µM | 46.5 µM | 29.3 µM |  | 15.4 µM |  | 35.2 µM | 16.3 µM | 20.2 µM | 14.9 µM | 3.96 µM | 9.06 µM | 31.4 µM | 14.9 µM
N#CC(C#N)=C1NC(=O)C(c2ccccc2)C(=O)N1 (centres undefined) | > 100 µM |  |  | > 100 µM | > 100 µM | > 100 µM | > 100 µM |  | > 100 µM | > 100 µM |  |  |  |  |  |  |  |  |  | 
Cc1ccccc1NC(=O)c1[nH]c(=S)nc(N)c1-c1ccccc1C | > 100 µM |  | > 100 µM | > 100 µM | > 100 µM | > 100 µM | > 100 µM |  | > 100 µM | > 100 µM |  |  |  |  |  |  |  |  |  | 
COC(=O)C1Cc2c([nH]c3ccccc23)C=N1 (centres undefined) | > 100 µM |  |  | > 100 µM | > 100 µM | > 100 µM | > 100 µM |  | > 100 µM | > 100 µM |  |  |  |  |  |  |  |  |  | 
O=Cc1ccc(C(F)(F)F)cc1.[C-]#[O+].[C-]#[O+].[C-]#[O+].[Cr] | 37 µM | 62.4 µM | > 100 µM | > 100 µM | 82.1 µM | > 100 µM |  | > 100 µM | > 100 µM | 54.3 µM | 13.3 µM | 18.5 µM | 23.7 µM | 21 µM | 22.6 µM | 46.6 µM |  | 24.8 µM | 14.4 µM | 31.2 µM
CCOC(=O)C(=Cc1ccccc1Br)C(=O)OCC | 4.79 µM |  | 5.31 µM | 29.1 µM | 15.6 µM | > 100 µM | > 100 µM | 14.9 µM | 7.57 µM | 8.32 µM |  |  |  |  |  |  |  |  |  | 
Cc1cccc(C)c1NC(=O)C(=O)C1C(=O)N(c2ccccc2)N=C1N (centres undefined) | > 100 µM |  | > 100 µM | > 100 µM | > 100 µM | > 100 µM | > 100 µM |  | > 100 µM | > 100 µM |  |  |  |  |  |  |  |  |  | 
NS(=O)(=O)c1ccc(-n2nc(-c3ccc(Cl)cc3)cc2C2=CC(=O)C=CC2=O)cc1 | 34.1 µM |  | > 100 µM | 50.4 µM | 36.5 µM |  | 33.4 µM | 56.2 µM | > 100 µM | 45.4 µM | 14.2 µM | 21.5 µM | 58 µM | 24.6 µM | 19.7 µM |  | 6.86 µM | 28 µM |  | 19.4 µM
COc1nc2c(nc(N)n2C2OC(CO)C(O)C(O)C2O)c(=O)n1C (centres undefined) | > 100 µM |  |  | > 100 µM | > 100 µM | > 100 µM |  |  | > 100 µM | > 100 µM |  |  |  |  |  |  |  |  |  | 
CC(C)(C)c1ccccc1NS(=O)(=O)c1ccccc1 | > 100 µM |  | > 100 µM |  | > 100 µM | > 100 µM | > 100 µM |  |  | > 100 µM |  |  |  |  |  |  |  |  |  | 
CCOC1NC(=O)Oc2ccccc21 (centres undefined) | > 100 µM |  | > 100 µM | > 100 µM | > 100 µM | > 100 µM |  | > 100 µM | > 100 µM | > 100 µM |  |  |  |  |  |  |  |  |  | 
Cc1cc(S(N)(=O)=O)c(S/C(=N\NS(=O)(=O)c2ccc(Cl)cc2)c2ccc(Cl)cc2)cc1Cl | > 100 µM |  | > 100 µM | > 100 µM | > 100 µM | > 100 µM | > 100 µM | > 100 µM | > 100 µM | > 100 µM | > 100 µM | > 100 µM | > 100 µM | > 100 µM | > 100 µM | > 100 µM | 22 µM | > 100 µM |  | 56.8 µM
O=C1/C(=C/c2ccc(O)cc2)CCC1CNc1ccc(Cl)cc1 (centres undefined) | 5.86 µM |  | 28.7 µM | 19.8 µM | 9.25 µM | 20.7 µM | 10.8 µM | 18.2 µM | 28.4 µM | 15.5 µM |  |  |  |  |  |  |  |  |  | 
Cc1cc(Cl)ccc1N1C(=O)C(=O)C(c2nc3ccccc3s2)C(=O)C1=O | > 100 µM |  | > 100 µM | > 100 µM | > 100 µM | > 100 µM | > 100 µM |  | > 100 µM | > 100 µM |  |  |  |  |  |  |  |  |  | 
